In ChEMBL document CHEMBL1201862, “PubChem BioAssay data set” (2004):
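96-well plates; 48 h exposure; 5 concentrations. Endpoints by linear interpolation between flanking doses. Not reached: highest tested concentration assigned. GI50 marks 50% less growth.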 Active and inactive are the calls of the source. No stated cut-off is given here; in the data, active = GI50 up to about 1.1 µM and inactive = higher.

Legend:
Experiment in all cases: inhibition of tumour cell growth, NCI panel, 48 h
[1] = test system: SNB-19
[2] = test system: HCT-116
[3] = test system: UO-31
[4] = test system: NCI-H23
[5] = test system: MOLT-4
[6] = test system: SK-MEL-28
[7] = test system: OVCAR-3
[8] = test system: COLO 205
[9] = test system: NCI-H226
[10] = test system: OVCAR-4
[11] = test system: UACC-257
[12] = test system: ACHN
[13] = test system: HCC 2998
[14] = test system: SW-620
[15] = test system: SK-MEL-5
[16] = test system: M19-MEL
[17] = test system: RPMI-8226
[18] = test system: SF-268

Structure (SMILES) | GI50 [1] | GI50 [2] | GI50 [3] | GI50 [4] | GI50 [5] | GI50 [6] | GI50 [7] | GI50 [8] | GI50 [9] | GI50 [10] | GI50 [11] | GI50 [12] | GI50 [13] | GI50 [14] | GI50 [15] | GI50 [16] | GI50 [17] | GI50 [18]
COc1ccc([Se][Se]c2ccc(OC)cc2OC)c(OC)c1 | 3.64 µM (inactive) | 2.75 µM (inactive) | 2.4 µM (inactive) | 2.92 µM (inactive) | 3.07 µM (inactive) | 2.16 µM (inactive) | 3.52 µM (inactive) | 6.79 µM (inactive) | 2.9 µM (inactive) | 2.1 µM (inactive) | 2.45 µM (inactive) | 2.86 µM (inactive) | 6.07 µM (inactive) | 2.59 µM (inactive) | 7.85 µM (inactive) | 2.03 µM (inactive) | 2.48 µM (inactive) | 2.19 µM (inactive)
NCC1(N2CCOCC2)C2CCCC21CO (configuration not stated) | > 100 µM (inactive) | > 100 µM (inactive) | > 100 µM (inactive) | > 100 µM (inactive) | > 100 µM (inactive) | > 100 µM (inactive) | > 100 µM (inactive) | > 100 µM (inactive) | > 100 µM (inactive) | > 100 µM (inactive) | > 100 µM (inactive) | > 100 µM (inactive) | > 100 µM (inactive) | > 100 µM (inactive) | > 100 µM (inactive) | > 100 µM (inactive) | > 100 µM (inactive) | > 100 µM (inactive)
COC(=O)/C([Se]c1c(C)cc(C)cc1C)=C(\[Se]c1c(C)cc(C)cc1C)C(=O)OC | > 100 µM (inactive) | > 100 µM (inactive) | > 100 µM (inactive) | > 100 µM (inactive) | > 100 µM (inactive) |  | > 100 µM (inactive) | > 100 µM (inactive) | > 100 µM (inactive) | > 100 µM (inactive) | > 100 µM (inactive) | > 100 µM (inactive) | > 100 µM (inactive) | > 100 µM (inactive) | > 100 µM (inactive) | > 100 µM (inactive) | > 100 µM (inactive) | > 100 µM (inactive)
COC(=O)C(=O)C(C(=O)C(=O)Nc1ccccc1C(N)=O)c1nc2ccc(C(=O)c3ccccc3)cc2nc1O (configuration not stated) | > 100 µM (inactive) | > 100 µM (inactive) | 58.6 µM (inactive) | > 100 µM (inactive) | 92.5 µM (inactive) | > 100 µM (inactive) |  | > 100 µM (inactive) | 92.7 µM (inactive) | > 100 µM (inactive) | > 100 µM (inactive) | > 100 µM (inactive) | > 100 µM (inactive) | > 100 µM (inactive) | 52.6 µM (inactive) | > 100 µM (inactive) | > 100 µM (inactive) | > 100 µM (inactive)
COc1cccc2c1c1ccc3c(c1n2C)C(=O)C=CC3=O | > 100 µM (inactive) | 14.2 µM (inactive) | 18.6 µM (inactive) | 16.1 µM (inactive) | 2.64 µM (inactive) | 19 µM (inactive) | 16.3 µM (inactive) | 6.15 µM (inactive) | 64.3 µM (inactive) | 17.5 µM (inactive) | 14.9 µM (inactive) | 15 µM (inactive) | 48.4 µM (inactive) | 12.1 µM (inactive) | 37.8 µM (inactive) | 1.24 µM (inactive) | 2.81 µM (inactive) | 17.8 µM (inactive)
COc1cc(C(Cc2ccccc2)NC(C)=O)oc(=O)c1 (configuration not stated) | > 100 µM (inactive) |  | > 100 µM (inactive) | > 100 µM (inactive) |  | > 100 µM (inactive) | > 100 µM (inactive) | > 100 µM (inactive) | > 100 µM (inactive) | > 100 µM (inactive) | > 100 µM (inactive) | > 100 µM (inactive) | > 100 µM (inactive) | > 100 µM (inactive) | > 100 µM (inactive) | > 100 µM (inactive) | > 100 µM (inactive) | 89.1 µM (inactive)
COc1cc2c(cc1O)CCN[C@@]21CS[C@H]2c3c(OC(C)=O)c(C)c4c(c3C(COC1=O)N1C2C2NC(Cc3cc(C)c(OC)c(O)c32)[C@@H]1C#N)OCO4 (some centres not stated) | < 0.01 µM (active) | < 0.01 µM (active) | < 0.01 µM (active) | < 0.01 µM (active) | < 0.01 µM (active) | < 0.01 µM (active) | < 0.01 µM (active) | < 0.01 µM (active) | < 0.01 µM (active) | < 0.01 µM (active) |  | < 0.01 µM (active) | < 0.01 µM (active) | < 0.01 µM (active) | < 0.01 µM (active) | < 0.01 µM (active) | < 0.01 µM (active) | < 0.01 µM (active)
Nc1ccc(C(=O)CC2(O)C(=O)Nc3c(Cl)cc(Cl)cc32)cc1 (configuration not stated) | > 100 µM (inactive) | 66.7 µM (inactive) | > 100 µM (inactive) | 83 µM (inactive) | 46.8 µM (inactive) | > 100 µM (inactive) | > 100 µM (inactive) | > 100 µM (inactive) | > 100 µM (inactive) | > 100 µM (inactive) | 75.5 µM (inactive) | 94.8 µM (inactive) | > 100 µM (inactive) | 25.5 µM (inactive) |  | 47 µM (inactive) | 50.9 µM (inactive) | > 100 µM (inactive)
CCCC/C=C/C1Cc2ccccc2CN1S(=O)(=O)c1ccc(C)cc1 (configuration not stated) | 24.2 µM (inactive) | 1.6 µM (inactive) | 5.6 µM (inactive) | 4.27 µM (inactive) | 3.97 µM (inactive) | 10.5 µM (inactive) | 9.57 µM (inactive) | 7.29 µM (inactive) | 10 µM (inactive) | 5.85 µM (inactive) | 4.25 µM (inactive) | 5.24 µM (inactive) | 12.1 µM (inactive) | 11.2 µM (inactive) | 3.28 µM (inactive) | 6.01 µM (inactive) | 2.07 µM (inactive) | 10.2 µM (inactive)
CC(C)N(C(=O)C12C3C4C5C3C1(C(=O)N(C(C)C)C(C)C)C5(C#N)C42)C(C)C (configuration not stated) | > 100 µM (inactive) | 38.4 µM (inactive) | > 100 µM (inactive) | > 100 µM (inactive) | > 100 µM (inactive) | > 100 µM (inactive) | > 100 µM (inactive) | 40.5 µM (inactive) | > 100 µM (inactive) | > 100 µM (inactive) | > 100 µM (inactive) | > 100 µM (inactive) | > 100 µM (inactive) | 17.9 µM (inactive) | > 100 µM (inactive) | > 100 µM (inactive) | 26.7 µM (inactive) | > 100 µM (inactive)
O=C1COc2cc3c(cc2N1)SCC(=O)N3 | > 100 µM (inactive) | > 100 µM (inactive) | > 100 µM (inactive) | > 100 µM (inactive) | > 100 µM (inactive) | > 100 µM (inactive) | > 100 µM (inactive) | > 100 µM (inactive) | > 100 µM (inactive) | > 100 µM (inactive) | > 100 µM (inactive) |  | > 100 µM (inactive) | > 100 µM (inactive) | > 100 µM (inactive) | > 100 µM (inactive) | > 100 µM (inactive) | > 100 µM (inactive)
C=CC[C@@]1(C#N)C[C@H](C[C@]2(C#N)C[C@H](CCl)OC(C)(C)O2)OC(C)(C)O1 | > 100 µM (inactive) | 55.2 µM (inactive) | 43 µM (inactive) | > 100 µM (inactive) | 72.8 µM (inactive) | > 100 µM (inactive) | > 100 µM (inactive) | > 100 µM (inactive) | 38.4 µM (inactive) | > 100 µM (inactive) | 94.8 µM (inactive) | > 100 µM (inactive) | > 100 µM (inactive) | > 100 µM (inactive) | 63.5 µM (inactive) | > 100 µM (inactive) | 52.5 µM (inactive) | > 100 µM (inactive)
C=C1CCC2C(C)(CO)C(O)CCC2(C)C1CC(O)C1=CCOC1=O (configuration not stated) | > 100 µM (inactive) | 26.5 µM (inactive) | > 100 µM (inactive) | > 100 µM (inactive) | > 100 µM (inactive) | > 100 µM (inactive) | 26.5 µM (inactive) | 38.5 µM (inactive) | 45.2 µM (inactive) | 61.1 µM (inactive) | > 100 µM (inactive) | 60.7 µM (inactive) | 17.7 µM (inactive) | 19.8 µM (inactive) | 77.1 µM (inactive) | 45.5 µM (inactive) | > 100 µM (inactive) | > 100 µM (inactive)
O=C(CCC(=O)Nc1ccc(Cl)c(Cl)c1)Cc1nc2ccccc2o1 | > 100 µM (inactive) | > 100 µM (inactive) | > 100 µM (inactive) | > 100 µM (inactive) | > 100 µM (inactive) | > 100 µM (inactive) | 29.3 µM (inactive) | > 100 µM (inactive) | > 100 µM (inactive) | > 100 µM (inactive) | > 100 µM (inactive) | > 100 µM (inactive) | > 100 µM (inactive) | > 100 µM (inactive) | > 100 µM (inactive) | > 100 µM (inactive) | > 100 µM (inactive) | > 100 µM (inactive)
CNC1=C(C)C(=O)C(C)=C(C(C)(C)CC(=O)n2cc(F)c(=O)[nH]c2=O)C1=O | > 65.8 µM (inactive) | 8.2 µM (inactive) | 24.3 µM (inactive) | 7.5 µM (inactive) | 26.7 µM (inactive) | > 30.9 µM (inactive) | 38.5 µM (inactive) | 23.6 µM (inactive) | 43.4 µM (inactive) |  | 68.2 µM (inactive) | 38.5 µM (inactive) | 1.16 µM (inactive) | 39.9 µM (inactive) | 12.3 µM (inactive) | 49.7 µM (inactive) | 6.81 µM (inactive) | 55.7 µM (inactive)
